A short description of this data set: activity coefficient (dimensionless); of the first substance listed, at infinite dilution; xn = mol fraction of the nth substance listed. Conditions: 101.33 kPa, Liquid, Chromatography, x1 = 0.

The structures appear in SMILES notation. “And” between values parts separate entries of the source, which are not always exact repeats. Identical values can stand only once. Numbers after ± are expanded uncertainties.

In the case of `CC(=O)C(C)=O` [2,3-butanedione] + O, the activity coefficient by setting is: (298.1 K) 13.3 and 13.2; (298.17 K) 13.2 and 13.1.
For `CCCCC(C)=O` [2-hexanone] + O, the activity coefficient worked out at 319 ± 14 (297.85 K) and 265 ± 12 (298.15 K).
On to `CSC` [2-thiapropane] + O, for which the activity coefficient was 175 and 173 and 171 (298.01 K); 184 and 185 (298.02 K); 170 and 173 (298.03 K); 178 ± 12 (298.07 K).
For the molecule `CC(C)=O` [acetone] + O, the activity coefficient runs as follows: (298.01 K) 7.62 and 7.68; (298.03 K) 7.64 and 7.7; (298.04 K) 7.68 and 7.74; (298.17 K) 7.7 ± 0.34.
As for `CCC(C)=O` [butanone] + O, the activity coefficient (297.85 K) was 25.8 ± 1.1 and the activity coefficient (298.15 K) came to 26.1 ± 1.2.
Regarding `CC=O` [ethanal] + O, the activity coefficient by setting is: (298.13 K) 4.13 [middle of 4 runs]; (298.15 K) 4.14 ± 0.19.
For the molecule `CCO` [ethanol] + O, the activity coefficient (298.15 K) is 3.77 ± 0.17.
`CCCC(C)=O` [pentan-2-one] + O: the activity coefficient came to 129 ± 6 (297.85 K) and 148 ± 7 (298.15 K).
On to `CCCO` [propan-1-ol] + O, for which the activity coefficient runs as follows: (298.01 K) 13.4 ± 0.6; (298.03 K) 13.3 ± 0.6; (298.04 K) 13.3 ± 0.6; (298.1 K) 13.4 and 13.3.

(Values after the NIST ThermoML archive (doi:10.1021/je0495942).)
